Assay results published in ChEMBL document CHEMBL1201862, “PubChem BioAssay data set” (2004).
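Interpolation was linear, between the two tested concentrations surrounding the appropriate level; five concentrations were tested over 48 hours in 96-well plates. The concentration for 50% growth inhibition is given as GI50.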 Active and inactive are the calls of the source. Cut-off read from the data, not from the text of the source: active = GI50 up to about 1.1 µM and inactive = higher.

Tests used:
Assay in all cases: DTP human tumour cell line panel, 48 h
[1] = tested on: HCC 2998
[2] = tested on: RXF 393
[3] = tested on: HL-60
[4] = tested on: COLO 205
[5] = tested on: SNB-19
[6] = tested on: RXF 631
[7] = tested on: SW-620
[8] = tested on: A498
[9] = tested on: IGROV-1
[10] = tested on: SN12C
[11] = tested on: U-251
[12] = tested on: SK-MEL-2
[13] = tested on: LOX IMVI
[14] = tested on: KM-20L2
[15] = tested on: UACC-257
[16] = tested on: HOP-92
[17] = tested on: M14
[18] = tested on: HOP-62
[19] = tested on: K562
[20] = tested on: OVCAR-3
[21] = tested on: A549
[22] = tested on: SK-OV-3
[23] = tested on: EKVX
[24] = tested on: SK-MEL-28
[25] = tested on: NCI-H460
[26] = tested on: M19-MEL
[27] = tested on: OVCAR-4
[28] = tested on: CAKI-1
[29] = tested on: HT-29
[30] = tested on: SNB-75
[31] = tested on: SF-539
[32] = tested on: NCI-H522
[33] = tested on: HOP-18
[34] = tested on: XF498
[35] = tested on: KM12
[36] = tested on: SF-295
[37] = tested on: NCI-H226
[38] = tested on: DMS-114
[39] = tested on: MOLT-4
[40] = tested on: SR
[41] = tested on: CCRF-CEM
[42] = tested on: ACHN
[43] = tested on: 786-0
[44] = tested on: NCI-H23
[45] = tested on: Malme-3M
[46] = tested on: SF-268
[47] = tested on: UO-31
[48] = tested on: SNB-78
[49] = tested on: TK-10
[50] = tested on: RPMI-8226
[51] = tested on: DMS-273
[52] = tested on: UACC-62
[53] = tested on: HCT-116
[54] = tested on: SK-MEL-5
[55] = tested on: LXFL 529
[56] = tested on: OVCAR-5
[57] = tested on: OVCAR-8
[58] = tested on: HCT-15
[59] = tested on: DLD-1

Structure (SMILES): CCOc1ccc(NC(=O)C(=O)CC(=O)c2c(C)[n+]([O-])c3ccccc3[n+]2[O-])cc1
- GI50 [1]: > 100 µM (inactive)
- GI50 [2]: > 100 µM (inactive)
- GI50 [3]: > 100 µM (inactive)
- GI50 [4]: > 100 µM (inactive)
- GI50 [5]: > 100 µM (inactive)
- GI50 [6]: > 100 µM (inactive)
- GI50 [7]: > 100 µM (inactive)
- GI50 [8]: > 100 µM (inactive)
- GI50 [9]: > 100 µM (inactive)
- GI50 [10]: > 100 µM (inactive)
- GI50 [11]: > 100 µM (inactive)
- GI50 [12]: > 100 µM (inactive)
- GI50 [13]: > 100 µM (inactive)
- GI50 [14]: > 100 µM (inactive)
- GI50 [15]: > 100 µM (inactive)
- GI50 [16]: > 100 µM (inactive)
- GI50 [17]: > 100 µM (inactive)
- GI50 [18]: > 100 µM (inactive)
- GI50 [19]: > 100 µM (inactive)
- GI50 [20]: > 100 µM (inactive)
- GI50 [21]: > 100 µM (inactive)
- GI50 [22]: > 100 µM (inactive)
- GI50 [23]: > 100 µM (inactive)
- GI50 [24]: > 100 µM (inactive)
- GI50 [25]: > 100 µM (inactive)
- GI50 [26]: > 100 µM (inactive)
- GI50 [27]: > 100 µM (inactive)
- GI50 [28]: > 100 µM (inactive)
- GI50 [29]: > 100 µM (inactive)
- GI50 [30]: > 100 µM (inactive)
- GI50 [31]: > 100 µM (inactive)
- GI50 [32]: > 100 µM (inactive)
- GI50 [33]: 24.9 µM (inactive)
- GI50 [34]: 59.8 µM (inactive)
- GI50 [35]: > 100 µM (inactive)
- GI50 [36]: > 100 µM (inactive)
- GI50 [37]: > 100 µM (inactive)
- GI50 [38]: > 100 µM (inactive)
- GI50 [39]: 81.5 µM (inactive)
- GI50 [40]: 64.9 µM (inactive)
- GI50 [41]: > 100 µM (inactive)
- GI50 [42]: > 100 µM (inactive)
- GI50 [43]: > 100 µM (inactive)
- GI50 [44]: > 100 µM (inactive)
- GI50 [45]: > 100 µM (inactive)
- GI50 [46]: > 100 µM (inactive)
- GI50 [47]: > 100 µM (inactive)
- GI50 [48]: > 100 µM (inactive)
- GI50 [49]: > 100 µM (inactive)
- GI50 [50]: > 100 µM (inactive)
- GI50 [51]: > 100 µM (inactive)
- GI50 [52]: > 100 µM (inactive)
- GI50 [53]: > 100 µM (inactive)
- GI50 [54]: > 100 µM (inactive)
- GI50 [55]: > 100 µM (inactive)
- GI50 [56]: > 100 µM (inactive)
- GI50 [57]: > 100 µM (inactive)
- GI50 [58]: > 100 µM

Structure (SMILES): COc1ccc(C2C3C(=O)C=CC(=O)C3[C@@H]2C)cc1OC (stereo not given in full)
- GI50 [1]: > 100 µM (inactive)
- GI50 [2]: > 100 µM (inactive)
- GI50 [3]: > 10 µM (inactive)
- GI50 [4]: 78.5 µM (inactive)
- GI50 [5]: 12.2 µM (inactive)
- GI50 [6]: > 100 µM (inactive)
- GI50 [7]: 42.1 µM (inactive)
- GI50 [8]: > 100 µM (inactive)
- GI50 [9]: > 100 µM (inactive)
- GI50 [11]: > 100 µM (inactive)
- GI50 [12]: > 100 µM (inactive)
- GI50 [13]: 42.3 µM (inactive)
- GI50 [14]: > 100 µM (inactive)
- GI50 [15]: > 100 µM (inactive)
- GI50 [16]: > 100 µM (inactive)
- GI50 [17]: > 100 µM (inactive)
- GI50 [18]: > 100 µM (inactive)
- GI50 [19]: 62.7 µM (inactive)
- GI50 [20]: > 100 µM (inactive)
- GI50 [21]: > 100 µM (inactive)
- GI50 [22]: > 100 µM (inactive)
- GI50 [23]: > 100 µM (inactive)
- GI50 [24]: > 100 µM (inactive)
- GI50 [25]: > 100 µM (inactive)
- GI50 [26]: > 100 µM (inactive)
- GI50 [27]: > 100 µM (inactive)
- GI50 [28]: > 100 µM (inactive)
- GI50 [29]: > 100 µM (inactive)
- GI50 [30]: 22.1 µM (inactive)
- GI50 [31]: > 100 µM (inactive)
- GI50 [32]: 17.5 µM (inactive)
- GI50 [33]: > 100 µM (inactive)
- GI50 [34]: 56.1 µM (inactive)
- GI50 [59]: > 100 µM (inactive)
- GI50 [35]: > 100 µM (inactive)
- GI50 [36]: > 100 µM (inactive)
- GI50 [37]: 81.7 µM (inactive)
- GI50 [38]: 56.5 µM (inactive)
- GI50 [39]: 36 µM (inactive)
- GI50 [41]: > 10 µM (inactive)
- GI50 [42]: 47.6 µM (inactive)
- GI50 [43]: 40.7 µM (inactive)
- GI50 [44]: > 100 µM (inactive)
- GI50 [45]: > 100 µM (inactive)
- GI50 [46]: > 100 µM (inactive)
- GI50 [47]: 73.5 µM (inactive)
- GI50 [48]: > 100 µM (inactive)
- GI50 [49]: > 100 µM (inactive)
- GI50 [50]: 27.6 µM (inactive)
- GI50 [51]: 61.4 µM (inactive)
- GI50 [52]: > 100 µM (inactive)
- GI50 [53]: 28.4 µM (inactive)
- GI50 [54]: > 100 µM (inactive)
- GI50 [55]: 42.4 µM (inactive)
- GI50 [56]: > 100 µM (inactive)
- GI50 [57]: > 100 µM (inactive)
- GI50 [58]: 23.6 µM
